Legend:
human T cells = assay: C3d complement deposition on T cells incubated with normal human serum (flow cytometry); assay type: cell-based; settings: 5% nHS, 100 μM Compstatin
Experimental: (§1) FIGS. 11A, 11B, and 11C. (A) C3d deposition on patient and control T cells were incubated in the presence or absence of 5% nHS with or without the addition of 100 μM Compstatin to block complement activation. (B) Ratio of C3a to C4a in culture supernatants after 24 hours of incubation with 5% nHS w/wo 100 μM compstatin. (C) Ratio of C5a to C4a in culture supernatants after 24 hours of incubation with 5% nHS or without 100 μM compstatin. ***=p<0.001.
Complement Deposition. T cells (Patient CD4^+ T cell blasts or Jurkat T cells) were collected and washed 3× in basal RPMI. Cells were then resuspended in basal media and rested for 2-3 hours at 37° C. to allow any deposited complement components to be cleared from the cell surface. Rested cells were then collected and resupended in basal RPMI or basal RPMI that had been adjusted to pH 6.5 (acidified media) to a final concentration of 1×10^6 cells/mL. Non-heat shocked pooled normal human serum was then added to cell suspension for the indicated amount of time. Human serum that had been heat shocked at 56° C. for 30 minutes was used as a negative control for complement activation. […] Cells were washed 3× and resuspended in FACS buffer (PBS, 1% FBS) and analyzed for C3d deposition by flow cytometry. […] Cells were then treated with trypsin/EDTA to release cells into suspension, washed, and then analyzed for C3d deposition as above. […]

patient T cells = assay: Anaphylatoxin ratios (C3a/C4a, C5a/C4a) in T cell culture supernatants; assay type: cell-based, human; settings: 24 hours incubation with 5% nHS, 100 μM Compstatin
Experimental: as §1
Compstatin Inhibits C3d Deposition on Human Cells. FIG. 11A illustrates that Compstatin inhibits C3d deposition on human T cells. […] In FIG. 11C, the ratio of C5a to C4a in culture supernatants of patient T cells after 24 hours of incubation with 5% nHS and 100 μM Compstatin is decreased, as compared to patient T cells not treated with Compstatin. ***=p<0.001.

HUVECs = assay: Surface marker expression on HUVECs after TNFα or ATRA treatment (flow cytometry); assay type: cell-based, human
Experimental: FIGS. 9A, 9B, 9C, 9D, 9E, 9F, 9G, 9H, 9I, 9J, 9K, 9L, 9M, 9N, 90, and 9P. Changes in inflammatory cytokine production by CD55 deficient cells promote pro-thrombotic changes in endothelial cells. Cytokine secretion in control and patient T cells following restimulation with anti-CD3 for 48 hours. Cells were either left untreated or treated with a combination of C3aR and C5aR1 inhibitors, both at 10 μM final concentration. Each patient point represents the average of at least three independent experiments. Results are for TNFα, IL10, or IFNγ (A, B, and C respectively). Anaphylatoxin receptor surface expression on proliferating CD4^+ T cells grown in complete RPMI supplemented with 100 u/mL IL2, isotype: filled grey line, sample: solid black line (D). C3aR expression on proliferating CD4^+ T cells grown in serum free X-vivo15 media supplemented with 100 u/mL IL-2 w/wo 10 nM ATRA, grey and black line respectively, isotype: filled grey line (E). IL-10 production in control and patient T cells stimulated with anti-CD3 and stimulatory antibodies directed against the indicated costimulatory molecules (F). Flow plots of thrombomodulin (TM) and Tissue Factor (TF) expression on HUVECs cultured for 24 hours w/wo 10 ng/mL TNFα (G). Quantification of the change in TM and TF expression on HUVECs in response to 24 hour culture with increasing doses of TNFα (H). Flow plots of CD46 and CD59 expression on HUVECs cultured for 24 hours w/wo 10 ng/mL TNFα (I). Quantification of CD46, CD59, and CD55 expression on HUVECs in response to 24 hour culture with increasing doses of TNFα (J, K, and L, respectively). Quantification of the change in TM and TF expression on HUVECs in response to 48 hour culture with increasing doses of ATRA (M). Quantification of CD46, CD59, and CD55 expression on HUVECs in response to 48 hour culture with increasing doses of ATRA (N, O, and P, respectively). (not significant (n.s.), * p<0.05, **p<0.01, ***p<0.001).
Flow Cytometry. Adherent cells were treated with 0.05% trypsin EDTA to lift them from the surface followed by addition of 5% FBS to inactivate the trypsin. Suspension cells were collected from culture following mixture of the culture by repeat pipetting. Cells were washed and resuspended in FACS buffer (1% FBS, 0.05% sodium azide, and 5 mM EDTA in PBS) at 2×10^6 cells/mL. Staining or isotype antibodies were added at 1:200 final dilutions and incubated with cells at 4° C. for 30 minutes to 1 hour. Cells were then washed 3× and resuspended in FACS buffer with 1% PFA and analyzed by flow cytometry. Flow files were analyzed on FlowJo version 9.9 or above (FlowJo, LLC, Ashland, OR, USA).
HUVEC Experiments. Huvecs grown to 80% confluency, and before passage 8, were trypsonized and replated in 24 well tissue culture plates at 200,000 cells/well in Huvec media. Twenty-four hours later the indicated concentrations of TNFα, IL10, or all trans retinoic acid (ATRA) were added. Twenty-four hours later in the cast of TNFα or IL10 treatment or 48 hours later in the case of ATRA, cells were trypsonized and stained for the indicated surface markers following the described flow cytometry staining protocol. Cells were then immediately analyzed.

human CD4+ T cells = assay: Surface expression of C3aR and gut homing markers on CD4+ T cells grown with ATRA; assay type: cell-based; settings: w/wo 10 nM ATRA
Experimental: FIGS. 9A, 9B, 9C, 9D, 9E, 9F, 9G, 9H, 9I, 9J, 9K, 9L, 9M, 9N, 90, and 9P. Changes in inflammatory cytokine production by CD55 deficient cells promote pro-thrombotic changes in endothelial cells. Cytokine secretion in control and patient T cells following restimulation with anti-CD3 for 48 hours. Cells were either left untreated or treated with a combination of C3aR and C5aR1 inhibitors, both at 10 μM final concentration. Each patient point represents the average of at least three independent experiments. Results are for TNFα, IL10, or IFNγ (A, B, and C respectively). […] Quantification of the change in TM and TF expression on HUVECs in response to 24 hour culture with increasing doses of TNFα (H). […] Quantification of CD46, CD59, and CD55 expression on HUVECs in response to 24 hour culture with increasing doses of TNFα (J, K, and L, respectively). Quantification of the change in TM and TF expression on HUVECs in response to 48 hour culture with increasing doses of ATRA (M). Quantification of CD46, CD59, and CD55 expression on HUVECs in response to 48 hour culture with increasing doses of ATRA (N, O, and P, respectively). […]
Flow Cytometry. […] Cells were then washed 3× and resuspended in FACS buffer with 1% PFA and analyzed by flow cytometry. Flow files were analyzed on FlowJo version 9.9 or above (FlowJo, LLC, Ashland, OR, USA).

[1] = 48 hour culture with increasing doses of ATRA

CC[C@H](C)[C@H](N)C(=O)N[C@H]1CSSC[C@@H](C(=O)N[C@H](C(N)=O)[C@@H](C)O)NC(=O)[C@H](CCCN=C(N)N)NC(=O)[C@H](Cc2cnc[nH]2)NC(=O)[C@H](Cc2cnc[nH]2)NC(=O)CNC(=O)[C@H](Cc2c[nH]c3ccccc23)NC(=O)[C@H](CC(=O)O)NC(=O)[C@H](CCC(N)=O)NC(=O)[C@H](C(C)C)NC(=O)[C@H](C(C)C)NC1=O [Compstatin]
C3d deposition on patient T cells (human T cells): substantially inhibited | ratio of C3a to C4a in culture supernatants (patient T cells): considerably decreased | ratio of C5a to C4a in culture supernatants (patient T cells): decreased

CC1=C(/C=C/C(C)=C/C=C/C(C)=C/C(=O)O)C(C)(C)CCC1 [ATRA, all trans retinoic acid]
CD46 expression (HUVECs; [1]): no change | CD55 expression (HUVECs; [1]): increase | CD59 expression (HUVECs; [1]): no change | thrombomodulin expression (HUVECs; [1]): dose-dependent decrease | surface expression of C3aR on T cells (human CD4+ T cells; serum free X-vivo15 media): depended on the presence | chemokine receptor CCR9 and integrin α4β7 (gut homing) on T cells (human CD4+ T cells; serum free conditions): expressed

TNFα
CD46 expression on endothelial cells (HUVECs; 24 hour culture with TNFα): decreased | CD55 expression on endothelial cells (HUVECs; 24 hour culture with TNFα): modestly increasing | CD59 expression on endothelial cells (HUVECs; 24 hour culture with TNFα): decreased | thrombomodulin (TM) and tissue factor (TF) expression on endothelial cells (HUVECs; 24 hour culture with TNFα): induces procoagulatory

Source: patent publication US12168802B2, “Methods of diagnosing and treating CD55 deficiency, hyperactivation of complement, angiopathic thrombosis and protein losing enteropathy (CHAPLE), a newly identified orphan disease” (The United States of America, as represented by the …, priority 2016, dated 2024)
